Values of other authors, collected in patent US20190135859A1, “METHOD OF MANUFACTURING A PHARMACEUTICAL COMPOSITION” (FERRING B.V., priority 2017, published 2019).
Starred links: 1 amine or outer side, 2 acyl side, 3 side chain; linkers in the order of their positions; H or OH if unused. Positions of bridges follow the written chain, without caps; N, C: chain ends. Residues, ends and D or L forms follow the SMILES beside them. X1 = O=C(CCC[*:2])[*:1]

What was measured:
[1] = tested on: human oxytocin (hOT) receptor versus human V2 (hV2) receptor; details: ratio of EC50 values; see Table 2 in WO2009/122285
[2] = tested on: Prader-Willi Syndrome patients; details: after 15 days, versus placebo treated patients, as described in WO2016/044131

Row | Structure (SMILES) | hV2/hOT selectivity ratio (EC50 hV2/EC50 hOT) [1] | improvement over placebo in measurements of hyperphagia, obsessive compulsive disorder, food seeking behaviour and clinical global impression [2]
1 | CC[C@H](C)[C@@H]1NC(=O)[C@H](Cc2ccc(O)cc2)NC(=O)[C@@H](N)CSSC[C@@H](C(=O)N2CCC[C@H]2C(=O)N[C@@H](CC(C)C)C(=O)NCC(N)=O)NC(=O)[C@H](CC(N)=O)NC(=O)[C@H](CCC(N)=O)NC1=O [Oxytocin, oxytocin] | 3 | 
2 | CC[C@H](C)[C@@H]1NC(=O)[C@H](Cc2ccc(OC)cc2)NC(=O)CCCSC[C@@H](C(=O)N2CCC[C@H]2C(=O)N[C@@H](CC(C)C)C(=O)NCC(N)=O)NC(=O)[C@H](CC(N)=O)NC(=O)[C@H](CCC(N)=O)NC1=O [carbetocin, (1-desamino-1-monocarba-2(O-methyl)-tyrosine)oxytocin] (Y(Me)IQNCPLG-NH2; linker N-5 via X1) | 244 | statistically significant improvement
